Laboratory results: patent US6770784B2, “Use of γ-hydroxybutyric acid amides in the treatment of drug addiction and in particular of alcoholism” (Laboratorio Farmaceutico C.T. S.r.l., priority 1996, dated 2004)

Columns and labels:
[1] = system: motor activity of the rat; test: Effects on the motor activity of the rat; format: in vivo; details: i.p., first half hour after administration
Method: Utilizing these preliminary goods results, the effects of said compounds were studied on the rats motor activity. This experiment permits to obtain a more objective evaluation about the effectiveness of the tested molecules, confirming and specifying the effective dosages, start and duration of the effects.
For these tests too, rats were subdvided into two groups: a control group of rats treated with the solvent and a positive control group consisting of rats treated i.p. with 300 mg/kg/2 ml GHB sodium salt in the aforesaid solvent.
GHB was systematically used as a reference: when administered at the above doses its motor reducing action spans a wide variation range.
Table 3—Effects on the Motor Activity Produced by Some Benzylamido Derivatives of GHB Compared With a 300 mg/kg Dose of GHB (Sedative Dose)
The following table reports data referred to the first half hour after administration. The per cent decreases in motor activity in respect of GHB are reported.

rats = test: General neuropharmacological profile: behaviour observation (excitation, bursts, sedation) after i.p. administration; format: in vivo; details: rat; for Neuropharmacological profile: different dosage levels; for Potency compared with GHB / Duration of action compared with GHB: excitatory effects
Method: The tests, which were intended to evaluate the neuropharmacological activity of the amides of the invention, were conducted on rats, because most of the data available in the literature concern said animal species.
The time at which the effects started, their intensity and duration were recorded.
Molecules were evaluated by systematically using a control group, in which rats had been treated with the utilized solvent, and a positive control group, in which rats had been treated intraperitoneally (i.p.) with a standard dose of GHB sodium salt (100 mg/kg) in 2 ml. GHB and the assayed amides were administered in 50% DMSO in distilled water.
Said dose of drug, used as a reference, produced typical excitatory effects, characterized by the onset of generic excitation accompanied by more particular paroxysms, the so-called BURSTS of excitation.
Generic excitation was characterized by an increased motor activity, extremely sharp and jerky movements, higher reactivity and shakes.
“Bursts” of excitation were typical and well recognizable: the animals fought and frantically pursued each other.
Recordings concerned the number of “bursts”, the time of their onset after treatment, their intensity, the partial or total involvement of treated animals, the duration of the single episodes.
The sedation produced by higher doses of the molecules examined was evaluated analogously: time of onset, degree of sedation, partial or total involvement, duration of the effects.
Table 2—General Neuropharmacological Profile of Benzylamido Derivatives of GHB Compared With a 100 mq/kg Dose of GHB (Excitatory Dose)

[2] = cited from earlier work

Question: Which “< % (per cent decrease in motor activity)” value ([1]; dose 300 mg/kg) does the source give for CCCNC(=O)CCCO [Compound 2)] here?
Answer: 82%

Question: With Nc1ccc(CNC(=O)CCCO)cc1 [Compound 3)] as the compound, how does the Neuropharmacological profile (rats) read?
Answer: biphasic neuropharmacological profile

Question: What about the “Excitatory effects Duration” value (rats; dose 25-50 mg/kg) of the same compound?
Answer: 60 min

Question: What about the “Excitatory effects Start” value (rats; dose 25-50 mg/kg) of the same compound?
Answer: 30 min

Question: What about the “Potency compared with GHB” value (rats) of the same compound?
Answer: more powerful than GHB

Question: For O=C(CCCO)NCc1ccc(Cl)cc1 [Compound 4)], which “Excitatory effects Duration” value (rats; dose 50-100 mg/kg) is on record?
Answer: 45 min

Question: What about the “Excitatory effects Start” value (rats; dose 50-100 mg/kg) of the same compound?
Answer: 30 min

Question: What about the “< % (per cent decrease in motor activity)” value ([1]; dose 100 mg/kg) of the same compound?
Answer: 0%

Question: And the “< % (per cent decrease in motor activity)” value ([1]; dose 300 mg/kg)?
Answer: 80%

Question: Which results are given for Cc1ccc(CNC(=O)CCCO)cc1 [Compound 5)]?
Answer: Potency (dose) and duration of action compared with GHB (rats): substantially superimposable to GHB acid; Dosage required for excitatory effects (rats; GHB reference excitatory dose 100 mg/kg): 100 mg/kg; Neuropharmacological profile (rats): biphasic neuropharmacological profile; Excitatory effects Start (rats; dose 100 mg/kg): 20 min; < % (per cent decrease in motor activity) ([1]; dose 300 mg/kg): 77%

Question: Which “Excitatory effects Duration” value (rats; dose 25-50 mg/kg) does the source give for COc1ccc(CNC(=O)CCCO)cc1 [Compound 6)] here?
Answer: 45 min

Question: And the “Excitatory effects Start” value (rats; dose 25-50 mg/kg)?
Answer: 45 min

Question: What about the “< % (per cent decrease in motor activity)” value ([1]; dose 300 mg/kg) of the same compound?
Answer: 57%

Question: Which results are given for COCCCC(=O)NCc1ccc(C)cc1 [Compound 7)]?
Answer: Potency (dose) and duration of action compared with GHB (rats): better than those of GHB; Neuropharmacological profile (rats): biphasic neuropharmacological profile; Excitatory effects Start (rats; dose 25-50 mg/kg): 20 min; Duration of action compared with GHB (rats): longer duration of action; Potency compared with GHB (rats): more powerful than GHB; < % (per cent decrease in motor activity) ([1]; dose 100 mg/kg): 76%

Question: Which results are given for COc1cc(CNC(=O)CCCO)cc(OC)c1 [Compound 8)]?
Answer: Excitatory effects Duration (rats; dose 100 mg/kg): 30 min; Excitatory effects Start (rats; dose 100 mg/kg): 60 min; < % (per cent decrease in motor activity) ([1]; dose 300 mg/kg): 68%

Question: Which “Excitatory effects Duration” value (rats; dose 100 mg/kg) does the source give for O=C(CCCO)NCc1cccnc1 [Compound 9)] here?
Answer: 15 min

Question: What about the “Excitatory effects Start” value (rats; dose 100 mg/kg) of the same compound?
Answer: 60 min

Question: And the “< % (per cent decrease in motor activity)” value ([1]; dose 300 mg/kg)?
Answer: 72%

Question: And the “< % (per cent decrease in motor activity)” value ([1]; dose 100-200 mg/kg)?
Answer: 0%

Question: Which Neuropharmacological profile (rats) does the source give for COCCCC(=O)NCc1ccccc1 [Compound 10)] here?
Answer: biphasic neuropharmacological profile

Question: And the “Excitatory effects Duration” value (rats; dose 25-50 mg/kg)?
Answer: 30 min

Question: What about the “Excitatory effects Start” value (rats; dose 25-50 mg/kg) of the same compound?
Answer: 20 min

Question: What about the “Potency compared with GHB” value (rats) of the same compound?
Answer: more powerful than GHB

Question: What about the “< % (per cent decrease in motor activity)” value ([1]; dose 100 mg/kg) of the same compound?
Answer: 42%

Question: Which Neuropharmacological profile (rats) does the source give for COCCCC(=O)NCc1ccc(Cl)cc1 [Compound 11)] here?
Answer: biphasic neuropharmacological profile

Question: And the “Excitatory effects Duration” value (rats; dose 25-50 mg/kg)?
Answer: 60 min

Question: What about the “Excitatory effects Start” value (rats; dose 25-50 mg/kg) of the same compound?
Answer: 20 min

Question: What about the “Potency compared with GHB” value (rats) of the same compound?
Answer: more powerful than GHB

Question: What about the “< % (per cent decrease in motor activity)” value ([1]; dose 100 mg/kg) of the same compound?
Answer: 70%

Question: What does the source list for CCOCCCC(=O)NCc1ccc(C)cc1 [Compound 12)]?
Answer: Neuropharmacological profile (rats): biphasic neuropharmacological profile; Excitatory effects Duration (rats; dose 25-50 mg/kg): 30 min; Excitatory effects Start (rats; dose 25-50 mg/kg): 60 min; Potency compared with GHB (rats): more powerful than GHB; < % (per cent decrease in motor activity) ([1]; dose 100 mg/kg): 54.5%

Question: Which results are given for CCCOCCCC(=O)NCc1ccc(C)cc1 [Compound 13)]?
Answer: Neuropharmacological profile (rats): biphasic neuropharmacological profile; Excitatory effects Duration (rats; dose 100 mg/kg): 30 min; Excitatory effects Start (rats; dose 100 mg/kg): 45 min; < % (per cent decrease in motor activity) ([1]; dose 100 mg/kg): 58%

Question: For COCCCC(=O)NCc1cccc2ccccc12 [Compound 14)], which “Potency (dose) and duration of action compared with GHB” value (rats) is on record?
Answer: better than those of GHB

Question: What about the Neuropharmacological profile (rats) of the same compound?
Answer: biphasic neuropharmacological profile

Question: And the “Excitatory effects Duration” value (rats; dose 25-50 mg/kg)?
Answer: 180 min

Question: And the “Excitatory effects Start” value (rats; dose 25-50 mg/kg)?
Answer: 30 min

Question: What about the “Duration of action compared with GHB” value (rats) of the same compound?
Answer: longer duration of action

Question: And the “Potency compared with GHB” value (rats)?
Answer: more powerful than GHB

Question: And the “< % (per cent decrease in motor activity)” value ([1]; dose 50 mg/kg)?
Answer: 65%

Question: What about the “< % (per cent decrease in motor activity)” value ([1]; dose 100 mg/kg) of the same compound?
Answer: 75%

Question: Which results are given for COCCCC(=O)NCc1ccc(C(F)(F)F)cc1 [Compound 15)]?
Answer: Potency (dose) and duration of action compared with GHB (rats): better than those of GHB; Neuropharmacological profile (rats): biphasic neuropharmacological profile; Excitatory effects Start (rats; dose 25-50 mg/kg): 20 min; Duration of action compared with GHB (rats): longer duration of action; Potency compared with GHB (rats): more powerful than GHB; < % (per cent decrease in motor activity) ([1]; dose 25-50 mg/kg): 64%

Question: Which “Duration of action (excitatory effects)” value (rats; GHB reference) does the source give for O=C(O)CCCO [GHB, γ-hydroxybutyric acid] here?
Answer: 1 h

Question: And the Neuropharmacological profile (rats)?
Answer: causes excitation at relatively low doses and sedation at higher doses

Question: And the “Maximum concentration peak, time after administration” value ([2]; absorption by the gastroenteric apparatus)?
Answer: 35 to 40 min

Question: What about the Half-life time ([2]; in vivo) of the same compound?
Answer: 20 to 25 min
